Measured values reported in patent US10016515B2, “DMA, a bis-benzimidazole, confers radioprotection to the intestine via Akt/NFκB dual pathway activation” (Jawaharlal Nehru University, priority 2016, dated 2018).

Legend:
HEK293 cells = assay: Proliferation kinetics in presence of inhibitors; type: cell-based, human
Method: HEK293 cells post 50 μM LY294002 (PI3K/Akt inhibitor) and 10 μM PS1145 (NFκB inhibitor) treatment were treated with 50 μM DMA and 5 Gy radiation. Same experiment was done with control (no inhibitor), only LY294002 and only PS1145 treated HEK cells. Percentage (%) radioprotection of cells at 24, 48 and 72 h was calculated by following formula— % growth of Radiation treated cells=(CNRadiation/CNControl)×100. % growth of DMA+Radiation treated cells=(CNDMA+Radiaion/CNControl)×100. % Radioprotection=% growth of DMA+Radiation treated cells−% growth of Radiation treated cells where CN is the cell number.

Balb/c mice liver tissue = assay: Biochemical estimations of antioxidant enzymes, thiols and lipid peroxidation in liver; type: in vivo, mouse; parameters: MDA level in hepatic tissues / Reduced glutathione (GSH) level in liver / GST level / GST content / SOD activity / SOD level / Total thiol contents in liver homogenates: unit not given here
Method: Mice hepatic tissues were homogenised using REMI homogenizer in phosphate buffer and centrifuged at 10,000×g for 15 min and aliquots of supernatant were separated. The supernatant was used for the biochemical estimations using standard spectrophotometric reported methods. The total protein was determined by the Lowry method.
The liver supernatant was incubated for 10 min and the absorbance was measured at 412 nm and total thiol content was calculated by standard method. The amount of MDA was done by reaction with thiobarbituric acid (TBA) at 532 nm by literature method.
Glutathione was measured according to the Ellman's method.
Superoxide dismutase (SOD) activity was assayed according to the Marklund and Marklund method. The activity of GST was determined by using CDNB as the substrate. The reaction mixture contained 1 mM of CDNB, 1 mM GSH in 0.1M phosphate buffer (pH 6.5). The formation of the GSH-CDNB conjugate was determined at 340 nm and the activity was calculated by using e=9.6 mM-1 cm-1.

[1] = tested on: melanoma bearing Balb/c mice; assay: Melanoma tumor bearing mice, tumor volume and survival after TBI; type: in vivo, mouse
Method: EAT and B16F10 melanoma cell line were harvested and 10×10^6 and 0.8×10^6 cells respectively were injected subcutaneously in the Balb/c mice (n=24) on the right thigh. When tumors reached 0.5 cm^3 in volume, animals were randomized and divided into 4 different groups. The first test group was treated with 50 mg/kg, i.v. DMA, second test group subjected to 8 Gy TBI. Third group received 50 mg/kg, i.v. DMA and 8 Gy TBI both. The control group was similarly administered normal saline (0.1 ml, i.v.). On every alternate days, tumor-bearing thigh of each animal was shaved, and the longest (1) and shortest diameter (b) of the tumors along with height (h) were measured with the help of a vernier calliper. Tumor weight of each animal was calculated using the formula l*b*h/2.

nude mice = assay: Nude mice survival after 7Gy TBI; type: in vivo, mouse; conditions: 50 mg/kg i.p. 2 h prior to 7Gy TBI
Method: Mice were divided into 4 groups containing 5 animals each. Group 1, sham control; Group 2, DMA treated (50 mg/kg, i.p.); Group 3, TBI 7Gy; Group 4, treated with DMA (50 mg/kg i.p.) prior to TBI 7Gy.

A549 cells = assay: Growth kinetics with DMA prior to 6 Gy radiation; type: cell-based, human; conditions: for % growth compared to control: A549, 50 μM DMA prior to 6 Gy; for % radioprotection: A549, 6 Gy
Method: (§1) FIG. 2. Radioprotection by DMA Against Radiation in MRC5 and A549 Cell Lines. A) Proliferation of viable MRC5. B) Graphical representation of % survival of MRC5 cell line at 24 and 48 h C) A549 treated with 50 μM DMA in presence and absence of 6 Gy radiation and D) Graphical representation of % survival of A549 cell line at 24 and 48 h. Cell numbers were determined by haemocytometer at 0, 6, 12, 24 and 48 h. Values are mean (±SD) of three independent experiments. *p<0.05 compared to the control group.
(§2) 2 h subsequent to DMA treatment, cells was exposed to γ-irradiation (1.3 Gy/min dose rate) using Co-60 source (Institute of Nuclear Medicine and Allied Sciences, Delhi, India). Following irradiation, cells were incubated for 4 h in a 5% CO2 humidified incubator and processed for further sample preparation.

MRC5 cells = assay: Growth kinetics with DMA prior to 6 Gy radiation; type: cell-based, human; conditions: for % growth compared to control: MRC5, 50 μM DMA prior to 6 Gy; for % radioprotection: MRC5, 6 Gy
Method: as §1, §2

COc1ccc(-c2nc3cc(-c4nc5cc(N6CCN(C)CC6)ccc5[nH]4)ccc3[nH]2)cc1OC [DMA, 5-(4-methylpiperazin-1-yl)-2-[2′-(3,4-dimethoxyphenyl)-5′-benzimidazolyl]benzimidazole]
% radioprotection by DMA (HEK293 cells; LY294002 and PS1145 simultaneously, 24 h): 3%
% radioprotection by DMA (HEK293 cells; LY294002 and PS1145 simultaneously, 48 h): 2.2%
% radioprotection by DMA (HEK293 cells; LY294002 and PS1145 simultaneously, 72 h): 2%
% radioprotection by DMA (HEK293 cells; LY294002 treated cells, 24 h): 15%
% radioprotection by DMA (HEK293 cells; LY294002 treated cells, 48 h): 10%
% radioprotection by DMA (HEK293 cells; LY294002 treated cells, 72 h): 4%
% radioprotection by DMA (HEK293 cells; PS1145 treated cells, 24 h): 4%
% radioprotection by DMA (HEK293 cells; PS1145 treated cells, 48 h): 3.5%
% radioprotection by DMA (HEK293 cells; PS1145 treated cells, 72 h): 2.4%
% radioprotection by DMA (HEK293 cells; no inhibitor, 50 μM DMA, 5 Gy, 24 h): 40%
% radioprotection by DMA (HEK293 cells; no inhibitor, 50 μM DMA, 5 Gy, 48 h): 35%
% radioprotection by DMA (HEK293 cells; no inhibitor, 50 μM DMA, 5 Gy, 72 h): 16%
Glutathione reductase activity (Balb/c mice liver tissue; DMA 2 h prior to irradiation vs irradiated group): significant decrease
SOD activity (Balb/c mice liver tissue; DMA only): 16.96±1.35
GST level (Balb/c mice liver tissue; DMA only, 200 mg/kg oral): 2.76±0.32
MDA level in hepatic tissues (Balb/c mice liver tissue; DMA only, 200 mg/kg oral): 0.19±0.06
Reduced glutathione (GSH) level in liver (Balb/c mice liver tissue; DMA only, 200 mg/kg oral): 5.07±0.09
Reduced glutathione (GSH) level in liver (Balb/c mice liver tissue; DMA pre-treatment + 8Gy TBI): 3.73±0.69
MDA level in hepatic tissues (Balb/c mice liver tissue; DMA pre-treatment + 8Gy TBI, 24 h post-irradiation): 0.20±0.04
Total thiol contents in liver homogenates (Balb/c mice liver tissue; DMA pre-treatment + TBI): 0.91±0.08
SOD level (Balb/c mice liver tissue; DMA pre-treatment to radiation (8Gy)): 15.50±0.60
GST content (Balb/c mice liver tissue; DMA prior to radiation): 2.78±0.25
Survival of melanoma bearing Balb/c mice ([1]; 50 mg/kg i.v. 2 h before 8Gy TBI): 50%
Radioprotection of tumor tissues ([1]; 50 mg/kg, 2 h before irradiation, melanoma model): less radioprotection
30-days survival of nude mice (nude mice): 40%
% growth compared to control (A549 cells; 24 h): 73%
% growth compared to control (A549 cells; 48 h): 68%
% radioprotection (A549 cells; 24 h): 11.1%
% radioprotection (A549 cells; 48 h): 15%
% growth compared to control (MRC5 cells; 24 h): 58.62%
% growth compared to control (MRC5 cells; 48 h): 74%
% radioprotection (MRC5 cells; 24 h): 20.69%
% radioprotection (MRC5 cells; 48 h): 29%
